Test results taken from US8828985B2, “Carbamate and urea inhibitors of 11-beta-hydroxysteroid dehydrogenase 1” (Vitae Pharmaceuticals, Inc., priority 2008, dated 2014).

Target: T1, purified recombinant 11β-HSD1 (Homo sapiens, UniProt P28845)
T1 construct: made in house; host or cells: E. coli
Experiment: Biological Test Example 1: inhibition of purified 11β-HSD1, Scintillation Proximity Assay
Type: biochemical
Details: purified recombinant 11β-HSD1 (expressed in E. coli), SPA; read-out: Biological Test Example 1 IC50 Range
Experimental: The inhibition of purified 11β-HSD1 by compounds of Formula I is measured using a Scintillation Proximity Assay. […] The reaction is then incubated for 90 minutes, and stopped by adding 50 μl of SPA bead mix (18-β-glycyrrhetinic acid, 10 μM final, 5 mg/ml protein A coated YSi SPA beads, and 1 ug/ml α-cortisol antibody (East Coast Biologics)). The plate is shaken for 120 minutes, and the radioactivity corresponding to ^3H cortisol is measured on a Wallac Microbeta.

T1 sequence (P28845 whole entry, species assumed): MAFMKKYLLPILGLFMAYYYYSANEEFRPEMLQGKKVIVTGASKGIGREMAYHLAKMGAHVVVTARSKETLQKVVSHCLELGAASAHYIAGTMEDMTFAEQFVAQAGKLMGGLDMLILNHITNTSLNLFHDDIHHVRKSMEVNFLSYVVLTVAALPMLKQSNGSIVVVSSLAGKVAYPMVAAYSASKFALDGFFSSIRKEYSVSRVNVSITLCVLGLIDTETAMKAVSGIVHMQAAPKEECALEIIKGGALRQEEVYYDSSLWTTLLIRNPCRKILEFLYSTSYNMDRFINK

IC50: < 100 nM
SMILES: CC(C)(C)OC(=O)NC[C@@H]1CCN(C(=O)NC2C3CC4CC(C3)CC2C4)C1 (stereo partly drawn) [Example 54, (S)-tert-butyl (1-(2-adamantylcarbamoyl)pyrrolidin-3-yl)methylcarbamate]
